Experimental data from patent US7285556B2, “Thienopyrimidine-based inhibitors of the src family” (Board of Regents, The University of Texas Systems, priority 2000, dated 2007).
Like-named read-outs stand apart in the source and are kept apart here.

Molecular target: T1, Recombinant human Src (Homo sapiens, UniProt P12931)
T1 construct: made in house; host or cells: baculovirus-insect cell system
Assay: Src tyrosine kinase activity, poly E4Y and 32P-ATP
Assay type: biochemical
Procedure: Recombinant human Src was expressed using the baculovirus-insect cell system and purified as published (Budde et al., 1993 and 2000). Recombinant Csk and the FGF receptor (FGFr) were expressed as glutathione-S-transferase fusion proteins using the pGEX expression vector and E. coli, and purified as described (Sun & Budde, 1995).
The tyrosine kinase activity of Src, Csk and FGFr was determined using poly E4Y and ^32P-ATP. Briefly, enzymes were assayed in a reaction mixture consisting of 0.15 M EPPS-NaOH (pH 8.0) with 6 mM MgCl2, 0.2 mM γ^32P-ATP (0.2-0.4 mCi/μmol), 10% glycerol, 0.1% Triton X-100, and poly E4Y. Poly E4Y is a synthetic peptide whose phosphorylation is measured in this assay by the addition of the radioactively labeled phosphate from the ATP (Budde et al., 1995). […] When ATP was varied (0, 50, 100 and 250 μM), poly E4Y was kept constant at 150 μg/ml.

[1] = Table 2, read-out: Src IC50 (especially good inhibitors of Src)
[2] = read-out: IC50 (preferred compounds for treatment of Src family-related disease)

T1 sequence (P12931 whole entry): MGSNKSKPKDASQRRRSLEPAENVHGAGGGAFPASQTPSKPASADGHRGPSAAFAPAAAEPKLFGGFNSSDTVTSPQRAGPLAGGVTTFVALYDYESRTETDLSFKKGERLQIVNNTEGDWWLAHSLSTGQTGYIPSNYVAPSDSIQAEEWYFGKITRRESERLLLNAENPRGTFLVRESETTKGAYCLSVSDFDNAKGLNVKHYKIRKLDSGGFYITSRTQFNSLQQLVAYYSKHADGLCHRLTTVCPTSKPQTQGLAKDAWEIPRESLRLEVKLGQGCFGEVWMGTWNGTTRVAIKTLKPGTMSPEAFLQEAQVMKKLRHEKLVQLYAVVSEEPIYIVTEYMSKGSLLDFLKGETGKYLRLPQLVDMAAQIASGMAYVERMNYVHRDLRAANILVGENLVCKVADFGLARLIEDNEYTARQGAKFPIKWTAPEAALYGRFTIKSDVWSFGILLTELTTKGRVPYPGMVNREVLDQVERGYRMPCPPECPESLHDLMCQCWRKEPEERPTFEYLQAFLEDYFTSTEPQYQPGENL

Row | SMILES | IC50 [1] | IC50 [2]
1 | Cc1csc2c(NN=Cc3ccc(O)c(O)c3)ncnc12 [Compound 23, 3,4-Dihydroxybenzaldehyde(7-methylthieno[3,2-d]pyrimidin-4-yl)hydrazone] | ≤ 2000 nM | < 2000 nM
2 | Cc1csc2c(NN=Cc3c[nH]cn3)ncnc12 [Compound 42, 1H-Imidazole-4-carboxaldehyde(7-methylthieno[3,2-d]pyrimidin-4-yl)hydrazone] | ≤ 2000 nM | < 2000 nM
3 | Cc1csc2c(NN=Cc3ccc(O)c([N+](=O)[O-])c3)ncnc12 [Compound 49, 4-Hydroxy-3-nitrobenzaldehyde(7-methylthieno[3,2-d]pyrimidin-4-yl)hydrazone] | ≤ 2000 nM | < 2000 nM
4 | Cc1csc2c(NN=Cc3ccc(O)c(Cl)c3)ncnc12 [Compound 55, 3-Chloro-4-hydroxybenzaldehyde(7-methylthieno[3,2-d]pyrimidin-4-yl)hydrazone] | ≤ 2000 nM | < 2000 nM
5 | C(=NNc1ncnc2ccsc12)c1cccnc1 [Compound 98, 3-Pyridinecarboxaldehyde(thieno[3,2-d]pyrimidin-4-yl)hydrazone] | ≤ 2000 nM | < 2000 nM
6 | Cc1[nH]cnc1C=NNc1ncnc2c(C)csc12 [Compound 100, 5-Methyl-1H-imidazole-4-carboxaldehyde(7-methylthieno[3,2-d]pyrimidin-4-yl)hydrazone] | ≤ 2000 nM | < 2000 nM
7 | Cc1csc2c(NN=CC3CC3)ncnc12 [Compound 178, Cyclopropanecarboxaldehyde(7-methylthieno[3,2-d]pyrimidin-4-yl)hydrazone] | ≤ 2000 nM | < 2000 nM
8 | O=C(O)c1ccc(C=NNc2ncnc3c2sc2ncccc23)cc1 [Compound 245, 4-Carboxybenzaldehyde(pyrido[3′,2′:4,5]thieno[3,2-d]pyrimidin-4-yl)hydrazone] | ≤ 2000 nM | < 2000 nM
9 | O=C(O)c1ccc(C=NNc2ncnc3cc(-c4ccc(F)cc4)sc23)cc1 [Compound 280, 4-Carboxybenzaldehyde(6-(4-fluorophenyl)thieno[3,2-d]pyrimidin-4-yl)hydrazone] | ≤ 2000 nM | < 2000 nM
10 | CS(=O)(=O)c1ccc(-c2cc3ncnc(NN=Cc4ccc(C(=O)O)cc4)c3s2)cc1 [Compound 291, 4-Carboxybenzaldehyde(6-(4-methanesulphonylphenyl)thieno-[3,2-d]pyrimidin-4-yl)hydrazone] | ≤ 2000 nM | < 2000 nM
11 | O=C(O)c1ccc(C=NNc2ncnc3cc(-c4cccc(Cl)c4)sc23)cc1 [Compound 305, 4-Carboxybenzaldehyde(6-(3-chlorophenyl)thieno[3,2-d]pyrimidin-4-yl)hydrazone] | ≤ 2000 nM | < 2000 nM
12 | O=C(O)c1ccc(C=NNc2ncnc3cc(-c4ccccc4Cl)sc23)cc1 [Compound 318, 4-Carboxybenzaldehyde(6-(2-chlorophenyl)thieno[3,2-d]pyrimidin-4-yl)hydrazone] | ≤ 2000 nM | < 2000 nM
13 | COc1ccc(C=NNc2ncnc3cc(-c4ccccc4Cl)sc23)cc1O [Compound 321, 3-Hydroxy-4-methoxybenzaldehyde(6-(2-chlorophenyl)thieno[3,2-d]pyrimidin-4-yl)hydrazone] | ≤ 2000 nM | < 2000 nM

Continued, values first:

Row | IC50 [1] | IC50 [2] | SMILES
14 | ≤ 2000 nM | < 2000 nM | Cc1c(-c2ccccc2)sc2c(NN=Cc3cccnc3)ncnc12 [Compound 359, 3-Pyridinecarboxaldehyde(7-methyl-6-phenylthieno[3,2-d]pyrimidin-4-yl)hydrazone]
15 | ≤ 2000 nM | < 2000 nM | Cc1c(-c2ccccc2)sc2c(NN=Cc3ccc(C(=O)O)cc3)ncnc12 [Compound 360, 4-Carboxybenzaldehyde(7-methyl-6-phenylthieno[3,2-d]pyrimidin-4-yl)hydrazone]
16 | ≤ 2000 nM | < 2000 nM | Cc1c(I)sc2c(NN=Cc3ccc(C(=O)O)cc3)ncnc12 [Compound 373, 4-Carboxybenzaldehyde(6-iodo-7-methylthieno[3,2-d]pyrimidin-4-yl)hydrazone]
17 | ≤ 2000 nM | < 2000 nM | Cc1c(-c2ccsc2)sc2c(NN=Cc3ccc(C(=O)O)cc3)ncnc12 [Compound 380, 4-Carboxybenzaldehyde(7-methyl-6-(3-thienyl)thieno[3,2-d]pyrimidin-4-yl)hydrazone]
18 | ≤ 2000 nM | < 2000 nM | COc1ccc(C=NNc2ncnc3c(C)c(-c4ccsc4)sc23)cc1O [Compound 382, 3-Hydroxy-4-methoxybenzaldehyde(7-methyl-6-(3-thienyl)thieno[3,2-d]pyrimidin-4-yl)hydrazone]
19 | ≤ 2000 nM | < 2000 nM | Cc1c(-c2ccccc2Cl)sc2c(NN=Cc3ccc(C(=O)O)cc3)ncnc12 [Compound 390, 4-Carboxybenzaldehyde(6-(2-chlorophenyl)7-methylthieno[3,2-d]pyrimidin-4-yl)hydrazone]
20 | ≤ 2000 nM | < 2000 nM | O=C(O)c1ccc(C=NNc2ncnc3cc(I)sc23)cc1 [Compound 395, 4-Carboxybenzaldehyde(6-iodothieno[3,2-d]pyrimidin-4-yl)hydrazone]
21 | ≤ 2000 nM | < 2000 nM | COc1ccc(-c2cc3ncnc(NN=Cc4cccnc4)c3s2)cc1 [Compound 405, 3-Pyridinecarboxaldehyde(6-(4-methoxyphenyl)thieno[3,2-d]pyrimidin-4-yl)hydrazone]
22 | ≤ 2000 nM | < 2000 nM | COc1ccc(-c2cc3ncnc(NN=Cc4ccc(C(=O)O)cc4)c3s2)cc1 [Compound 406, 4-Carboxybenzaldehyde(6-(4-methoxyphenyl)thieno[3,2-d]pyrimidin-4-yl)hydrazone]
23 | ≤ 2000 nM | < 2000 nM | COc1ccc(-c2sc3c(NN=Cc4ccc(C(=O)O)cc4)ncnc3c2C)cc1 [Compound 423, 4-Carboxybenzaldehyde(6-(4-methoxyphenyl)-7-methylthieno[3,2-d]pyrimidin-4-yl)hydrazone]
24 | ≤ 2000 nM | < 2000 nM | COc1cccc(-c2sc3c(NN=Cc4ccc(C(=O)O)cc4)ncnc3c2C)c1 [Compound 427, 4-Carboxybenzaldehyde(6-(3-methoxyphenyl)-7-methylthieno[3,2-d]pyrimidin-4-yl)hydrazone]
25 | ≤ 2000 nM | < 2000 nM | COc1ccccc1-c1sc2c(NN=Cc3ccc(C(=O)O)cc3)ncnc2c1C [Compound 433, 4-Carboxybenzaldehyde(6-(2-methoxyphenyl)-7-methylthieno[3,2-d]pyrimidin-4-yl)hydrazone]
26 | ≤ 2000 nM | < 2000 nM | COc1ccccc1-c1sc2c(NN=Cc3cccs3)ncnc2c1C [Compound 434, 2-Thiophenecarboxaldehyde(6-(2-methoxyphenyl)-7-methylthieno[3,2-d]pyrimidin-4-yl)hydrazone]
27 | ≤ 2000 nM | < 2000 nM | COc1ccc(C=NNc2ncnc3c(C)c(-c4ccccc4OC)sc23)cc1O [Compound 435, 3-Hydroxy-4-methoxybenzaldehyde(6-(2-methoxyphenyl)-7-methylthieno[3,2-d]pyrimidin-4-yl)hydrazone]
28 | ≤ 2000 nM | < 2000 nM | Cc1c(-c2ccc(CO)cc2)sc2c(NN=Cc3ccc(C(=O)O)cc3)ncnc12 [Compound 437, 4-Carboxybenzaldehyde(6-(4-hydroxymethylphenyl)-7-methylthieno[3,2-d]pyrimidin-4-yl)hydrazone]
